Experiment: Apparent aqueous solubility of drug in 1% polymer solution (30 min standing, centrifugation, HPLC of supernatant)
Type: physicochemical
Conditions: water without polymer; reference value for the increase; read-out: aqueous probucol solubility
Protocol: The following materials are used. The polyacrylic acid (PAA) has a molecular weight of about 1800, the polyethylene glycol used has either a molecular weight of 4000 or 8000 (as indicated in Table I below). The API chosen is either Probucol (>98% purity) or Ketoprofen (>98% purity). Each polymer or polymer combination shown in Table 1 is added to water in an amount to form 1% polymer solutions. Concentrated API solutions in methanol are prepared by adding 0.2 grams of drug to 10 ml of methanol (20 g/L of drug in methanol).
For each example in Table 1, 912 μl of the indicated polymer solution is transferred into individual vials. Then, 48 μl of drug solution in methanol is added to the polymer solution. These mixtures are agitated via three cycles of aspiration and dispensing using the EVO 200 pipettes. […]
The solubilized drug concentration in each taken aliquot was determined by reverse phase high-performance liquid chromatography (HPLC) analysis. […]
The drug concentration is determined from the measured elution profile by using a linear calibration curve for the respective drug, which was generated by determining the least squares fit of a straight line that described the relation between the concentration of four solutions of known concentrations (about 250, 500, 750, and 1000 mg/L) and the respective peak area integral after injection of 2 μL of each drug in methanol. […]

CC(C)(Sc1cc(C(C)(C)C)c(O)c(C(C)(C)C)c1)Sc1cc(C(C)(C)C)c(O)c(C(C)(C)C)c1 [control, Probucol]
solubility at 30 min: 0.042 µg/mL

Source: US20250064733A1, “USE OF PEG-BASED INTERPOLYMER COMPLEXES FOR IMPROVED SOLUBILIZATION F BCS CLASS II DRUGS” (Dow Global Technologies LLC, priority 2022, published 2025)
